{
  "source": "ChEMBL document CHEMBL1201862",
  "about": "“PubChem BioAssay data set” (2004)",
  "key": {"[1]": {"test": "Luminescence Cell-Based Dose Confirmation HTS to Identify Activators of 5'UTR Stem-Loop Driven Alpha-Synuclein mRNA Translation in H4 Neuroglioblastoma Cells. [Related pubchem assays: 1829 (Project Summary), 1814 (Primary HTS)]", "format": "functional"}, "[2]": {"test": "Luminescence Cell-Based Dose Response HTS to Identify Activators of Luciferase Translation or Activity in H4 […] Cells. [Related pubchem assays: 1829 (Project Summary), 1814 (Primary HTS)]", "format": "functional"}, "[3]": {"tested_on": "H4", "test": "Luminescence Cell-Based Dose Response HTS to Identify Activators of 5'UTR Stem-Loop Driven Prion Protein mRNA Translation in H4 Neuroglioblastoma Cells. [Related pubchem assays: 1829 (Project Summary), 1814 (Primary HTS)]", "format": "functional", "conditions": "Homo sapiens"}, "[4]": {"test": "DNA binding of candidate compounds, dose response, artefact control for RAD54 inhibitor project, biochemical, fluorescence polarization, cherry-pick (AID 651673)", "format": "functional"}, "[5]": {"molecular_target": "T1, DNA repair and recombination protein RAD54-like (Homo sapiens, UniProt Q92698)", "T1 sequence (Q92698 whole entry)": "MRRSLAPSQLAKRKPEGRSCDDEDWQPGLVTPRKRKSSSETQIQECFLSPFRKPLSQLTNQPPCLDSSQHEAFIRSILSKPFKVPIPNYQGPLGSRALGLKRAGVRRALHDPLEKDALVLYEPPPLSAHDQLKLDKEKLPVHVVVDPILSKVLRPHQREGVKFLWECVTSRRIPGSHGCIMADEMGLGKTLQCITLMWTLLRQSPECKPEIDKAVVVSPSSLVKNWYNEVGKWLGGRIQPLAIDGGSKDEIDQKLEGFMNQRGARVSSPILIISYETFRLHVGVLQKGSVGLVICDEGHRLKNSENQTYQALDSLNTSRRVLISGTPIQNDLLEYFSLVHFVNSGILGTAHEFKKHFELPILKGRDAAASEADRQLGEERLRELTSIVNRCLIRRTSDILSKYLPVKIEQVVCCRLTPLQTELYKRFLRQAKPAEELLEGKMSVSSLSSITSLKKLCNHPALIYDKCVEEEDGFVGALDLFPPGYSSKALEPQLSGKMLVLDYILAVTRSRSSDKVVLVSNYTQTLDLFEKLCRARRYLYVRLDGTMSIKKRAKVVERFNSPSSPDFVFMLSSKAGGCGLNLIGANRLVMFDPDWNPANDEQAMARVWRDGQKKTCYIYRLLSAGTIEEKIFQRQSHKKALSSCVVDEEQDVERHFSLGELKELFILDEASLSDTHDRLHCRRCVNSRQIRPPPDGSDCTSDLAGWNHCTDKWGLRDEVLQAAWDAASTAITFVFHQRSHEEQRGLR", "test": "inhibitors of human RAD54 branch migration, confirmation, biochemical, fluorescence, cherry-picked samples, dose series (AID 651657)", "format": "functional"}, "[6]": {"molecular_target": "SWI/SNF-related matrix-associated actin-dependent regulator of chromatin subfamily A member 2 (Homo sapiens, UniProt P51531)", "sequence (P51531 whole entry)": "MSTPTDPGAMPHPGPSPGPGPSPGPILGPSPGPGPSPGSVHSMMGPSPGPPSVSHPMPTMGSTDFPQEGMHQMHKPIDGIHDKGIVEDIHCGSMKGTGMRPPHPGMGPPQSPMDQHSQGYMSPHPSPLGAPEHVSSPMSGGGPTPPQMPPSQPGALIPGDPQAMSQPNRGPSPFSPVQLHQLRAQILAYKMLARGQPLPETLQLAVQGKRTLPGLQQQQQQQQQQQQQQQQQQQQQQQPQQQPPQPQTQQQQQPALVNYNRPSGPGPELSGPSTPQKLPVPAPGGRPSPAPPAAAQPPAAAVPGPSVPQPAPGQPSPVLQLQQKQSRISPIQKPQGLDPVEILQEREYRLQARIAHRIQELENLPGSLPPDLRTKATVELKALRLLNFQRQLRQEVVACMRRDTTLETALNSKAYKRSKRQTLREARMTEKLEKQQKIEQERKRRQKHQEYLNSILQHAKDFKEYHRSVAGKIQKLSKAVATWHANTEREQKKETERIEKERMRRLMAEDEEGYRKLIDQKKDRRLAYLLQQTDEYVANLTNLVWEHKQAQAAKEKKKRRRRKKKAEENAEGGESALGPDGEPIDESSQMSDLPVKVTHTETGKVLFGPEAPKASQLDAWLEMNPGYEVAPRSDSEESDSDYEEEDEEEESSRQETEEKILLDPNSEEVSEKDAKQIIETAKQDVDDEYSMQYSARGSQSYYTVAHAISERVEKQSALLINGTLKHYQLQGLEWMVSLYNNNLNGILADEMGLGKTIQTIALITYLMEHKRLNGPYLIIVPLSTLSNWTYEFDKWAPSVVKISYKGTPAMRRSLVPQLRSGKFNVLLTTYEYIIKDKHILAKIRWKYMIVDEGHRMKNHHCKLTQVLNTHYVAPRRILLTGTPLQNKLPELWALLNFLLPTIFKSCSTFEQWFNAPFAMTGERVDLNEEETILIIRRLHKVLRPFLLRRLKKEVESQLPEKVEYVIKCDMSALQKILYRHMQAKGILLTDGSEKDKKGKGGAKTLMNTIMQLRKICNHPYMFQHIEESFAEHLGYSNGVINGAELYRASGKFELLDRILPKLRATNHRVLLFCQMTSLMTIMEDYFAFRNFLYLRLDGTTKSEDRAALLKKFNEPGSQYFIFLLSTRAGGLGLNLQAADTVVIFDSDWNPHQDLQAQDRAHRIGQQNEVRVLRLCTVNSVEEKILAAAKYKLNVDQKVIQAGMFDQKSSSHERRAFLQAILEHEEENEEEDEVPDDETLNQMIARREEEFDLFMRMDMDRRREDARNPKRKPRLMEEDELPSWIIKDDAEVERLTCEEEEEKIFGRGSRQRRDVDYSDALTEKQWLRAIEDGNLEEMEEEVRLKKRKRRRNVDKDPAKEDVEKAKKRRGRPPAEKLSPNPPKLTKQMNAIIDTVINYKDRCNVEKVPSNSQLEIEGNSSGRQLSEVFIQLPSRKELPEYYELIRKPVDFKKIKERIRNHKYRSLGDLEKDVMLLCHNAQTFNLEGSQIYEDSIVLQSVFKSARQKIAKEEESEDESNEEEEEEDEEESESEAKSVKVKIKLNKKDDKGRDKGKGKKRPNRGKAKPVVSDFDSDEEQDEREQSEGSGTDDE", "test": "Luminescence-based cell-based high throughput dose response assay to identify activators of the function of SWI/SNF related, matrix associated, actin dependent regulator of chromatin, subfamily a, member 2 (SMARCA2, BRM).", "format": "functional"}, "[7]": {"test": "Counterscreen for activators of the function of SWI/SNF related, matrix associated, actin dependent regulator of chromatin, subfamily a, member 2 (SMARCA2, BRM): Luminescence-based cell-based high throughput dose response assay to identify non-selective compounds using the VP16 reporter assay.", "format": "functional"}, "[8]": {"molecular_target": "T2, DNA repair protein RAD52 homolog (Homo sapiens, UniProt P43351)", "T2 sequence (P43351 whole entry)": "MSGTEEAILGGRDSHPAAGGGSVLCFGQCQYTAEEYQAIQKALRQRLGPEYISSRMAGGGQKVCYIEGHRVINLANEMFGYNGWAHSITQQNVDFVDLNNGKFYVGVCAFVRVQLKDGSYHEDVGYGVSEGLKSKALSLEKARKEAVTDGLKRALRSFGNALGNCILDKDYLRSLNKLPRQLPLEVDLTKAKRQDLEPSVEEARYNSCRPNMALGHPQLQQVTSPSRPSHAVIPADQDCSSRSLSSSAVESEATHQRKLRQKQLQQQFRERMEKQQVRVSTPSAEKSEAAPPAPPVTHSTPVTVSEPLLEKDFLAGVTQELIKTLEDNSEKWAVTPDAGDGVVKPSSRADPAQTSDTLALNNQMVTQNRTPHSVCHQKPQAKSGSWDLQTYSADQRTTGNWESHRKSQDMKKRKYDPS", "format": "functional, biochemical"}, "[9]": {"molecular_target": "DNA (cytosine-5)-methyltransferase 1 (Homo sapiens, UniProt P26358)", "test": "DNMT1 methyltransferase inhibitors, confirmation, biochemical, fluorescent molecular beacon (AID 602386)", "format": "functional"}, "[10]": {"molecular_target": "T3, Probable nicotinate-nucleotide adenylyltransferase (Staphylococcus aureus (strain N315), UniProt P65502)", "T3 sequence (P65502 whole entry)": "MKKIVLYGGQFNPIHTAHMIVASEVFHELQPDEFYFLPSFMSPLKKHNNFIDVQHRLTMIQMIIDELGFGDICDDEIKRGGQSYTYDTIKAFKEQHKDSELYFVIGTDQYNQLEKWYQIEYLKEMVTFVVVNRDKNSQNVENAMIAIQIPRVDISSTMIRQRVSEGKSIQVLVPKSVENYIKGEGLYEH", "format": "functional, Staphylococcus aureus subsp. aureus N315"}, "[11]": {"molecular_target": "T3, Probable nicotinate-nucleotide adenylyltransferase", "format": "functional, Staphylococcus aureus subsp. aureus N315", "conditions": "read-out: IC50_Mean"}, "[12]": {"molecular_target": "Albumin (Bos taurus, UniProt P02769)", "sequence (P02769 whole entry)": "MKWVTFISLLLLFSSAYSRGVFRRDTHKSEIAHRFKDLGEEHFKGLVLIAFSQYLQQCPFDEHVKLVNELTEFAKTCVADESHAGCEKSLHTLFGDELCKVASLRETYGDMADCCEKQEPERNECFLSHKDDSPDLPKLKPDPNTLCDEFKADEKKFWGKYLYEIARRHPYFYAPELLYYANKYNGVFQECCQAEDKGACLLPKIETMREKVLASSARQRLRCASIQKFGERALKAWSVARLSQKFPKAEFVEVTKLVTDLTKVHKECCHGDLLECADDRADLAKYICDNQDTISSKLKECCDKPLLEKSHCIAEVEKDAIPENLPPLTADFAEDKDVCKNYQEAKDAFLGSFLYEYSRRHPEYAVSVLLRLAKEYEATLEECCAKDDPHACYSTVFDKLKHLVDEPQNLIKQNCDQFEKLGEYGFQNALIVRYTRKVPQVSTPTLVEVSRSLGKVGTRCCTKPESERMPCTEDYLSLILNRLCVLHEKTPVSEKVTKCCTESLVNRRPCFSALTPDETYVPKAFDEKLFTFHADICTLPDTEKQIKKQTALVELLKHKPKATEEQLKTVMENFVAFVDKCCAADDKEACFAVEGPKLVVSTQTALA", "test": "Counterscreen for inhibitors of T-cell receptor (TCR)-CD3 interaction: Fluorescence-based biochemical high throughput dose response assay to identify inhibitors of T-cell receptor (TCR)-CD3 interaction using a TAMRA-labeled BSA probe.", "format": "functional"}, "[13]": {"molecular_target": "Kallikrein-7 (Homo sapiens, UniProt P49862)", "sequence (P49862 whole entry)": "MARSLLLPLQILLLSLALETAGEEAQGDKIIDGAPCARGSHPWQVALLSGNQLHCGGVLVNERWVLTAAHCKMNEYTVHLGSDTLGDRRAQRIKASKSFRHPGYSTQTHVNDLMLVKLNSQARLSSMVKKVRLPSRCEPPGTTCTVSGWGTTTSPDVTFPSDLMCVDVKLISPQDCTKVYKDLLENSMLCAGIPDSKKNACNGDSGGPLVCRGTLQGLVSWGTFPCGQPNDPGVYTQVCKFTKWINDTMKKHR", "test": "Fluorescence Intensity-based biochemical primary high throughput dose response assay to identify activators of kallikrein-7 (K7) zymogen."}, "[14]": {"test": "microbe, parasite or virus in culture", "format": "functional", "conditions": "Mycobacterium tuberculosis"}, "[15]": {"molecular_target": "Neurotensin receptor type 1 (Homo sapiens, UniProt P30989)", "sequence (P30989 whole entry)": "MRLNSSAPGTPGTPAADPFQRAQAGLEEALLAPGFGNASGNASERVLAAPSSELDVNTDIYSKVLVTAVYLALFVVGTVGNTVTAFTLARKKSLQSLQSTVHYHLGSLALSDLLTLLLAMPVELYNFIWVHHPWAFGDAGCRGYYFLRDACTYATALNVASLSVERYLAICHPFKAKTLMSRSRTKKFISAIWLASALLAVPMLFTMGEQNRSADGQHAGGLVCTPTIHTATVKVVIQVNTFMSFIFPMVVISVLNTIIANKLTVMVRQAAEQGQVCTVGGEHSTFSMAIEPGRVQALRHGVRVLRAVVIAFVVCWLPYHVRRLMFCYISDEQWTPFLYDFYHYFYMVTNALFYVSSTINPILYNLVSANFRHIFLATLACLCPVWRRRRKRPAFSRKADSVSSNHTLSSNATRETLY", "format": "functional"}, "[16]": {"molecular_target": "Heat shock protein HSP 90-alpha (Homo sapiens, UniProt P07900)", "format": "functional, organism-based"}, "[17]": {"test": "A Cell Based Secondary Assay to Explore Cytotoxicity in THP-1 Cells of Compounds that Modulate Mycobacterium tuberculosis in Media Containing Glycerol versus Media without Glycerol (2).", "format": "functional"}, "[18]": {"test": "Vero cell cytotoxicity, cytotoxicity control for M. tuberculosis inhibitor project, purified and synthesized samples, set 3 (AID 504684)", "format": "functional", "conditions": "[…]"}, "[19]": {"test": "A Cell Based Secondary Assay to Explore Cytotoxicity in HepG2 Cells of Compounds that Modulate Mycobacterium tuberculosis in Media Containing Glycerol versus Media without Glycerol (2).", "format": "functional"}, "[20]": {"molecular_target": "Hepatocyte nuclear factor 4-alpha (Homo sapiens, UniProt P41235)", "sequence (P41235 whole entry)": "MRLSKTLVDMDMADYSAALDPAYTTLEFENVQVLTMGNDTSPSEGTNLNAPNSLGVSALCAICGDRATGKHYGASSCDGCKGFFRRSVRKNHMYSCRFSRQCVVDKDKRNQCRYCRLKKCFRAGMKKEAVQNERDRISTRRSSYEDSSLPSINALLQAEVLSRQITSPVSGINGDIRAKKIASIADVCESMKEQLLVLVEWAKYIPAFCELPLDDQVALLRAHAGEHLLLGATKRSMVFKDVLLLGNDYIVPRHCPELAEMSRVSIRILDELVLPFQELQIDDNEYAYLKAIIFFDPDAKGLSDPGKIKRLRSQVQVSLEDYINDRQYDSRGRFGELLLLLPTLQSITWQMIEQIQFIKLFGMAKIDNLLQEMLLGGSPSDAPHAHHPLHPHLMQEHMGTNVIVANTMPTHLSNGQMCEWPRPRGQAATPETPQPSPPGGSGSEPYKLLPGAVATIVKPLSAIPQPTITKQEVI", "format": "functional, cell-based"}, "[21]": {"molecular_target": "Beta-galactosidase (Escherichia coli, UniProt Q8VNN2)", "sequence (Q8VNN2 whole entry)": "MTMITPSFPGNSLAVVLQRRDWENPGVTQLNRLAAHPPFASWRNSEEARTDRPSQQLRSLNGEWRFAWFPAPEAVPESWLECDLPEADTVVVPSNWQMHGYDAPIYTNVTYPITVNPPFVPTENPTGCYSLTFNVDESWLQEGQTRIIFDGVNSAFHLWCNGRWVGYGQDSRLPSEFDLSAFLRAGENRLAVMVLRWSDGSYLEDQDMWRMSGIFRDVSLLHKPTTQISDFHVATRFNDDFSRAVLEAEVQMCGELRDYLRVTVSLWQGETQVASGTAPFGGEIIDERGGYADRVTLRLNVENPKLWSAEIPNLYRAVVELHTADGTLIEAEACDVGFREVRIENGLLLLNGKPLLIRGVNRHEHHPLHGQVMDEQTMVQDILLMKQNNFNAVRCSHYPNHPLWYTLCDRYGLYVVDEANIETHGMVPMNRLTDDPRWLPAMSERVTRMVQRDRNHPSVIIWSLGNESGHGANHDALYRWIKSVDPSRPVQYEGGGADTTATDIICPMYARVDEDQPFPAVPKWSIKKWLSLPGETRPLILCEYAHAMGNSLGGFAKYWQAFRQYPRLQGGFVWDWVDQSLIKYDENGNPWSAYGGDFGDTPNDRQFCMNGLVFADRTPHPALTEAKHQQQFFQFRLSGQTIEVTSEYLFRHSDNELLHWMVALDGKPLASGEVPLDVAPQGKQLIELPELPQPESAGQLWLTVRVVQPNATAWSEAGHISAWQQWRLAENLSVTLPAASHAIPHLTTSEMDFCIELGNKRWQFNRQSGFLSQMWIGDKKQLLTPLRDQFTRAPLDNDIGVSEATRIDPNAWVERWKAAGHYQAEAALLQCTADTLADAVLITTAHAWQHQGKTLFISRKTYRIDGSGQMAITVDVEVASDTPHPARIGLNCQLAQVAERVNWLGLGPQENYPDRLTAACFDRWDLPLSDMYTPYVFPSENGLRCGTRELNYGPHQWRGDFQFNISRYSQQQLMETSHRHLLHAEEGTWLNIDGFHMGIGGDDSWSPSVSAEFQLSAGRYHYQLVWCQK", "test": "beta-galactosidase enzyme inhibitors and activators, dose response, artefact control for CCR6 antagonist project, biochemical, E. coli enzyme, set 3 (AID 504712)", "format": "functional"}, "[22]": {"test": "Shn3 3'UTR reporter inhibitors, dose response, cell-based, Clone20 osteoblasts, firefly luciferase, cherry-picked (AID 624132)", "format": "functional"}, "[23]": {"test": "HepG2 cell cytotoxicity, dose response, cytotoxicity control for Shn3 inhibitor project, CellTiter-Glo, cherry-picked (AID 624134)", "format": "functional, cell-based"}, "[24]": {"test": "control 3'UTR Renilla luciferase suppression, dose response, counter-screen for Shn3 inhibitor project, cell-based, Clone20-Shn3RL, cherry-picked (AID 624133)", "format": "functional"}, "[25]": {"test": "Fluorescence-based cell-based high throughput dose response assay for inhibitors of the interaction of nucleotide-binding oligomerization domain containing 2 (NOD2) and the receptor-interacting serine-threonine kinase 2 (RIPK2).", "format": "functional", "conditions": "Homo sapiens"}, "[26]": {"molecular_target": "Beta Lactamase (Pseudomonas aeruginosa, UniProt Q932Y6)", "sequence (Q932Y6 whole entry)": "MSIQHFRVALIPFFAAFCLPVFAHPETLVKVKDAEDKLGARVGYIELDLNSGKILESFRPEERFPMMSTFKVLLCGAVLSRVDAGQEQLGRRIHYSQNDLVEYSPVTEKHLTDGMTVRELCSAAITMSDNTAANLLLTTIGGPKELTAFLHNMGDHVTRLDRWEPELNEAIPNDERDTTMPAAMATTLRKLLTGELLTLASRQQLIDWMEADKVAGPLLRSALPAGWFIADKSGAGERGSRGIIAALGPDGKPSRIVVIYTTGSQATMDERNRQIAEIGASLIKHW", "test": "beta-lactamase reporter inhibitor potency, dose response, artefact control for NOD2-RIPK2 interaction inhibitor project, BLA reporter cells, FRET fluorescence (AID 651552)", "format": "functional, cell-based"}, "[27]": {"molecular_target": "Paired box protein Pax-8 (Homo sapiens, UniProt Q06710)", "test": "inhibitors of PAX8-driven TPO luciferase reporter, dose response, RMG-I cells, cherry-pick (AID 687027);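 also: luciferase reporter driven by Pax8 target thyroperoxidase promoter measured by SteadyGlo luminescence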", "format": "functional, cell-based"}, "[28]": {"test": "non-specific cell cytotoxicity, dose response, cytotoxicity control for PAX8 inhibitor project, plate reader, dry powder samples (AID 743021)", "format": "functional, cell-based"}, "[29]": {"tested_on": "HEK293", "test": "cells", "conditions": "Homo sapiens"}, "[30]": {"tested_on": "HEK293", "test": "cells", "conditions": "Homo sapiens", "remark": "listed apart in the source"}},
  "note": "Calls of active or inactive are those of the source.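 For IC50 Mean in this document: confirmatory dose-response retesting of NadD inhibitor hits first found in an ultra-high-throughput screen.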",
  "data": [
    {"smiles": "CCN(CC)CCn1c2ccccc2c2nc3ccccc3nc21", "values": [
      {"measurement": "EC50", "setting": "[1]", "value": "31.8 µM (active)"},
      {"measurement": "EC50", "setting": "[2]", "value": "15.1 µM (active)"},
      {"measurement": "EC50", "setting": "[3]", "value": "29.6 µM (active)"},
      {"measurement": "AC50", "setting": "[4]", "value": "64 µM (active)"},
      {"measurement": "AC50", "setting": "[5]", "value": "7.12 µM (active)"},
      {"measurement": "EC50", "setting": "[6]", "value": "10.1 µM (inactive)"},
      {"measurement": "EC50", "setting": "[7]", "value": "> 91.1 µM (inactive)"},
      {"measurement": "AC50", "setting": "[8]", "value": "3.27 µM (active)"}
    ]},
    {"smiles": "COC(=O)C1CCN(C(=O)c2cc(-c3ccco3)nc3ccccc23)CC1", "values": [
      {"measurement": "IC50", "setting": "[9]", "value": "7.31 µM (active)"},
      {"measurement": "IC50", "setting": "[10]", "value": "18.8 µM (active)"},
      {"measurement": "IC50", "setting": "[11]", "value": "44.6 µM (active)"},
      {"measurement": "IC50", "setting": "[12]", "value": "> 94.1 µM (inactive)"},
      {"measurement": "EC50", "setting": "[13]", "value": "> 69.5 µM (inactive)"}
    ]},
    {"smiles": "COC(=O)c1cc(=O)n(-c2ccc(F)cc2)/c(=N/c2ccc(F)cc2)s1", "values": [
      {"measurement": "CC50", "setting": "[14]", "value": "13.9 µM (active)"},
      {"measurement": "EC50", "setting": "[15]", "value": "11.1 µM (active)"},
      {"measurement": "AC50", "setting": "[16]", "value": "8.18 µM (active)"},
      {"measurement": "CC50", "setting": "[17]", "value": "21.5 µM (active)"},
      {"measurement": "CC50", "setting": "[18]", "value": "12.9 µM (active)"},
      {"measurement": "CC50", "setting": "[19]", "value": "24.1 µM (active)"},
      {"measurement": "IC50", "setting": "[20]", "value": "4.1 µM (active)"}
    ]},
    {"smiles": "C=C1CC(Cn2cc(Br)c(=O)[nH]c2=O)(c2ccc(-c3ccccc3)cc2)OC1=O", "note": "(stereo not given)", "values": [
      {"measurement": "IC50", "setting": "[21]", "value": "> 66.6 µM (inactive)"},
      {"measurement": "AC50", "setting": "[22]", "value": "2.67 µM (active)"},
      {"measurement": "AC50", "setting": "[23]", "value": "13.6 µM (active)"},
      {"measurement": "AC50", "setting": "[24]", "value": "4.16 µM (active)"},
      {"measurement": "IC50", "setting": "[25]", "value": "2.2 µM (active)"},
      {"measurement": "IC50", "setting": "[26]", "value": "12.2 µM (inactive)"},
      {"measurement": "AC50", "setting": "[27]", "value": "6.49 µM (active)"},
      {"measurement": "AC50", "setting": "[28]", "value": "55.6 µM (active)"},
      {"measurement": "EC50", "setting": "[29]", "value": "> 59.7 µM (inactive)"},
      {"measurement": "EC50", "setting": "[30]", "value": "> 59.7 µM (inactive)"}
    ]}
  ]
}
